Where two headings read alike, the source gives them in different places. Values belong to the molecule of their own block, whether it stands above or below them.
Molecular target: T1, human Nav1.1 (Homo sapiens, UniProt P35498)
T1 construct: host or cells: HEK293
Assay: Amplification of Nav1.1-derived voltage-gated sodium current (Nav1.1 current), automated patch clamp (Test 1)
Assay type: cell-based
Procedure: Test 1: Evaluation of the Amplification of Nav1.1-Derived Voltage-Gated Sodium Current (Nav1.1 Current) by Using a Cell Line Stably Expressing Human Nav1.1
(1) Preparation of Test Compound Solution
Test compounds were prepared by dissolving in DMSO at 200 times of the concentration at evaluation, and diluting the obtained solution to twice the concentration of evaluation with an extracellular fluid (135 mmol/L NaCl, 4 mmol/L KCl, 1 mmol/L MgCl2, 5 mmol/L CaCl2, 5 mmol/L Glucose, 10 mmol/L HEPES).
(2) Induction and Measurement of Nav1.1 Current
A HEK293 cell line stably expressing human Nav1.1 (cat #CYL3009, Eurofins DiscoverX Products, LLC, Human Embryonic Kidney 293) was purchased, and used in the present test. Nav1.1 current was induced by stimulating Ramp wave voltage. Detection of current which accompanied with the stimulation of voltage was carried out by a patch-clamp voltage-clamp method using HTS automated patch clamp system (SynchroPatch 768PE, Nanion Technologies GmbH, Germany). Only cells with more than 500 pA of voltage-gated sodium channel current were used for the evaluation of the activity of compounds on Nav1.1 current because there was the possibility that currents derived from endogenous voltage-gated sodium channels accounted for large proportion in cells with less than 500 pA of voltage-gated sodium channel current which was induced by stimulating Ramp wave voltage.
(3) Pharmacological Effect on Nav1.1 Current
The effect of test compounds on the amplification of Nav1.1-derived voltage-gated sodium current was evaluated by using a cell line stably expressing human Nav1.1 and HTS automated patch clamp system. In other words, test compounds were added in an extracellular fluid containing 1% DMSO, and evaluated as a change of the peak value of Nav1.1 current and the area under the curve (AUC).
(4) Method for Pharmacological Evaluation
The Nav1.1 current amplification rates of test compounds were calculated by the following formula:
Nav1.1 current amplification rate (%)=100×[the peak value of Nav1.1 current or the area under the curve after the addition of test compounds]/[the peak value of Nav1.1 current or the area under the curve before the addition of test compounds]−100

[1] = concentration for evaluation 1 μM, HEK293 stably expressing human Nav1.1
[2] = Concentration for evaluation 1 μM, HEK293 cell line stably expressing human Nav1.1
[3] = Concentration for evaluation 50 μM, HEK293 cell line stably expressing human Nav1.1
[4] = Concentration for evaluation 10 μM, HEK293 cell line stably expressing human Nav1.1
[5] = HEK293, concentration for evaluation 1 μM, HEK293 stably expressing human Nav1.1, read-out: Nav1.1 current amplification rate (%)
[6] = Concentration for evaluation 3 μM, HEK293 cell line stably expressing human Nav1.1

Structure (SMILES): CN(c1cnc2cnn(CC(=O)N3CCc4c(-c5ccncc5)cccc43)c2n1)C1CCC1 [Example 689]
Nav1.1 current amplification rate (%) [2]: 286%

Structure (SMILES): Cc1nc(N2CCN(C(=O)Cn3nc(C4=CCC(C)CC4)ccc3=O)CC2)no1 (centres unmarked) [Example 406]
Nav1.1 current amplification rate (%) [3]: 68%

Structure (SMILES): COCCCN1CC2(CCN(C(=O)Cn3nc(C4=CCC(C)CC4)ccc3=O)C2)C1 (centres unmarked) [Example 308]
Nav1.1 current amplification rate (%) [3]: 9%

Structure (SMILES): N#Cc1ccc(NC(=O)Cn2nc(N3CCCC(C(N)=O)C3)ccc2=O)cc1 (centres unmarked) [Example 8]
Nav1.1 current amplification rate (%) [4]: 4%

Structure (SMILES): CC1CC=C(c2ccc(=O)n(CC(=O)N3CCc4c3ccnc4N3CCOCC3)n2)CC1 (centres unmarked) [Example 319]
Nav1.1 current amplification rate (%) [2]: 134%

Structure (SMILES): CC1CC=C(c2ccc3cnn(CC(=O)Nc4ccn5ccnc5c4)c3c2)CC1 (centres unmarked) [Example 894]
activation at 10 µM (HEK293, concentration for evaluation 10 μM, HEK293 stably expressing human Nav1.1, read-out: Nav1.1 current amplification rate (%)): 151%

Structure (SMILES): COC1CCN(c2nccc3c2CCN3C(=O)Cn2nc(C3=CCC(C)CC3)ccc2=O)CC1 (centres unmarked) [Example 309]
Nav1.1 current amplification rate (%) [2]: 71%

Structure (SMILES): CC1CCN(c2ccc(=O)n(CC(=O)Nc3cncc(C#N)c3)n2)CC1 [Example 60]
Nav1.1 current amplification rate (%) [4]: 57%

Structure (SMILES): N#Cc1ccc(NC(=O)Cn2nc(N3CCC(C(F)(F)F)CC3)ccc2=O)cc1 [Example 10]
Nav1.1 current amplification rate (%) [4]: 124%

Structure (SMILES): COc1cc(=O)n(CC(=O)N2CCN(c3cncc(F)c3)CC2)nc1C1=CCC(C)(C)CC1 [Example 490]
Nav1.1 current amplification rate (%) [4]: 469%

Structure (SMILES): CC1CC=C(c2ccc3cnn(CC(=O)N4CCc5c(N6CCOCC6)cccc54)c3n2)CC1 (centres unmarked) [Example 882]
activation at 1 µM [5]: 88%

Structure (SMILES): CC1CCN(c2ccc(=O)n(CC(=O)Nc3cccc(C#N)c3)n2)CC1 [Example 55]
Nav1.1 current amplification rate (%) [4]: 111%

Structure (SMILES): CC1CC=C(c2ccc(=O)n(CC(=O)Nc3ccc(C4=CCN(C)C4)nc3)n2)CC1 (centres unmarked) [Example 374]
Nav1.1 current amplification rate (%) [4]: 18%

Structure (SMILES): CC1CC=C(c2ccc(=O)n(CC(=O)Nc3ccn4nncc4c3)n2)CC1 (centres unmarked) [Example 342]
Nav1.1 current amplification rate (%) [2]: 109%

Structure (SMILES): COc1ccc(N2CCN(C(=O)Cn3nc(C4=CCC(C)CC4)ccc3=O)CC2)cn1 (centres unmarked) [Example 407]
Nav1.1 current amplification rate (%) [6]: 113%

Structure (SMILES): CC1CC=C(c2ccc(=O)n(CC(=O)N3CC=C(c4nccc5occc45)CC3)n2)CC1 (centres unmarked) [Example 404]
Nav1.1 current amplification rate (%) [4]: 42%

Structure (SMILES): CC1CC=C(c2ccc(=O)n(CC(=O)Nc3ccc4oc(CN5CCOCC5)nc4c3)n2)CC1 (centres unmarked) [Example 331]
Nav1.1 current amplification rate (%) [6]: 64%

Structure (SMILES): CN(c1cnc2cnn(CC(=O)Nc3ccc4ccccc4n3)c2n1)C1CC1 [Example 717]
Nav1.1 current amplification rate (%) [6]: 23%

Second part, the molecule after the results:

Nav1.1 current amplification rate (%) [1]: 226%
Structure (SMILES): N#Cc1ccc(NC(=O)Cn2ncc3cnc(N4CCC5(CC5)C(F)(F)C4)nc32)cn1 [Example 823]

Nav1.1 current amplification rate (%) [2]: 361%
Structure (SMILES): CC1CC=C(c2cnc3cnn(CC(=O)Nc4ccc5cncnc5c4)c3n2)CC1 (centres unmarked) [Example 641]

activation at 10 µM (HEK293, Concentration for evaluation 10 μM, HEK293 cell line stably expressing human Nav1.1, read-out: Nav1.1 current amplification rate (%)): 178%
Structure (SMILES): CN(C)c1cc(N2CCC3(CCC3)C2)nn(CC(=O)Nc2ccn3ccnc3c2)c1=O [Example 210]

activation at 50 µM (HEK293, Concentration for evaluation 50 μM, HEK293 cell line stably expressing human Nav1.1, read-out: Nav1.1 current amplification rate (%)): 37%
Structure (SMILES): O=C(Cn1ncc2cnc(OCCC3CC3)nc21)Nc1ccn2ncnc2c1 [Example 762, 2-[6-(2-Cyclopropylethoxy)-1H-pyrazolo[3,4-d]pyrimidin-1-yl]-N-([1,2,4]triazolo[1,5-a]pyridin-7-yl)acetamide]

Nav1.1 current amplification rate (%) [2]: 45%
Structure (SMILES): CN(CC1(C)CC1)c1cnc2cnn(CC(=O)Nc3ccc4ncnn4c3)c2n1 [Example 667]

Nav1.1 current amplification rate (%) [1]: 35%
Structure (SMILES): CN(CC1CC(F)(F)C1)c1ncc2cnn(CC(=O)Nc3ccn4ncnc4c3)c2n1 [Example 799]

Nav1.1 current amplification rate (%) [1]: 23%
Structure (SMILES): O=C(Cn1ncc2cnc(N3CCC4(CCC4)CC3)nc21)Nc1ccc2ncnn2c1 [Example 811]

activation at 1 µM (HEK293, Concentration for evaluation 1 μM, HEK293 cell line stably expressing human Nav1.1, read-out: Nav1.1 current amplification rate (%)): 321%
Structure (SMILES): CC1CC=C(c2cnc3cnn(CC(=O)Nc4ccc5ocnc5c4)c3n2)CC1 (centres unmarked) [Example 735]

activation at 1 µM [5]: 76%
Structure (SMILES): CN(c1ncc2cnn(CC(=O)Nc3ccc(C#N)nc3)c2n1)C1CC2(CC2)C1 [Example 845]

Nav1.1 current amplification rate (%) [3]: 202%
Structure (SMILES): CC1CC=C(c2ccc(=O)n(CC(=O)Nc3ccc4nncn4c3)n2)CC1 (centres unmarked) [Example 341]

Nav1.1 current amplification rate (%) [2]: 100%
Structure (SMILES): CN(CC1(C)CC1)c1cnc2cnn(CC(=O)Nc3ccn4ncnc4c3)c2n1 [Example 639]

Reference: patent US20230109839A1, “THERAPEUTIC AGENT FOR TAUOPATHIES” (SUMITOMO PHARMA CO., LTD., priority 2020, published 2023)
